Calls of active or inactive are those of the source. The rule behind the calls is not given here. Where only a bound is given, the exact number is not on record here.

For series [1], the system named is Staphylococcus aureus. Description: Antimicrobial activity against Staphylococcus aureus ATCC 29213 assessed as inhibition of microbial growth at 80 uM incubated for 10 hrs by spectrophotometric analysis. Type of series: functional, organism-based.
Series [2] has as its system Staphylococcus aureus. The experiment in a line: Antimicrobial activity against Staphylococcus aureus ATCC 29213 assessed as appearance of deformed bacteria at 20 uM incubated for 2 hrs by SEM analysis. Type of series: functional, organism-based.
For series [3], the system named is Staphylococcus aureus. Description: Antibiofilm activity against Staphylococcus aureus ATCC 29213 assessed as increase in green fluorescence at 5 uM incubated for 12 hrs by SYTO9/PI staining based confocal laser scanning microscopic analysis. Type of series: functional, organism-based.
For series [4], the system named is Staphylococcus aureus. The experiment in a line: Antimicrobial activity against Staphylococcus aureus ATCC 29213 assessed as appearance of damaged bacteria by measuring leakage at 20 uM incubated for 2 hrs by SEM analysis. Type of series: functional, organism-based.
The test system of series [5] is Staphylococcus aureus. The experiment in a line: Antimicrobial activity against Staphylococcus aureus ATCC 29213 assessed as appearance of wrinkled bacteria by measuring leakage at 20 uM incubated for 2 hrs by SEM analysis. Type of series: functional, organism-based.
For series [6], the system named is Staphylococcus aureus. Description: Antimicrobial activity against Staphylococcus aureus ATCC 29213 assessed as large area of intracellular content at 20 uM incubated for 2 hrs by SEM analysis. Type of series: functional, organism-based.
The subject of series [7] is Staphylococcus aureus. The experiment in a line: Antibiofilm activity against Staphylococcus aureus ATCC 29213 assessed as biofilm eradication at 10 uM incubated for 48 hrs by crystal violet staining based microplate reader analysis relative to control. Type of series: functional.
Series [8] deals with Staphylococcus aureus. Description: Antimicrobial activity against Staphylococcus aureus ATCC 29213 assessed as reduction in bacterial survival at 20 uM incubated for 8 hrs by spectrophotometric analysis relative to control. Type of series: functional.
The test system of series [9] is Staphylococcus aureus. The experiment in a line: Antibiofilm activity against Staphylococcus aureus ATCC 29213 assessed as damaged bacterial cells by measuring red fluorescence at 20 uM incubated for 12 hrs by SYTO9/PI staining based confocal laser scanning microscopic analysis. Type of series: functional, organism-based.
The test system of series [10] is Staphylococcus aureus. Description: Antibiofilm activity against Staphylococcus aureus ATCC 29213 assessed as inhibition of biofilm formation at 5 uM incubated for 48 hrs by crystal violet staining based microplate reader analysis. Type of series: functional, organism-based.
Series [11] in a line: Hemolytic activity in rabbit RBC assessed as hemolytic rate at 32 uM incubated for 1 hrs by spectrophotometric analysis. Type of series: toxicity, cell-based, Oryctolagus cuniculus, Erythrocyte. As to conditions: red blood cells (RBC), read-out: Activity.
Series [12] deals with Staphylococcus aureus. Description: Antibacterial activity against Staphylococcus aureus infected in male Sprague-Dawley rat wound model assessed as wound closure at 2 uM administered every 2 days and measured on day 4 relative to control. As to conditions: time 4 day. Type of series: functional.
The test system of series [13] is Escherichia coli. The experiment in a line: Bactericidal activity against Escherichia coli ATCC 25922 incubated for 18 hrs. Type of series: functional.
Series [14] concerns Streptococcus mutans. The experiment in a line: Antibiofilm activity against Streptococcus mutans ATCC 25175 assessed as inhibition of biofilm formation at 5 uM incubated for 48 hrs by crystal violet staining based microplate reader analysis. Type of series: functional, organism-based.
For series [15], the system named is Staphylococcus aureus. The experiment in a line: Antimicrobial activity against Staphylococcus aureus ATCC 29213 assessed as appearance of damaged bacteria at 5 uM incubated for 2 hrs by SEM analysis relative to control. Type of series: functional.
The subject of series [16] is MC3T3-E1. The experiment in a line: Cytotoxicity against mouse MC3T3-E1 cells assessed as reduction in cell viability at 2 uM incubated for 2 days by CCK-8 assay relative to control. Type of series: toxicity, cell-based. The following applies: mc3t3-e1, 48 h, time 2 day.
Series [17] has as its system Staphylococcus aureus. Description: Antibacterial activity against Staphylococcus aureus infected in male Sprague-Dawley rat wound model assessed as wound healing at 2 uM administered every 2 days and measured after 10 days. Type of series: functional, organism-based. As to conditions: time 10.0 day.
In series [18] the test system is Staphylococcus aureus. Description: Antimicrobial activity against Staphylococcus aureus ATCC 29213 assessed as disappearance of normal shape at 20 uM incubated for 2 hrs by SEM analysis. Type of series: functional, organism-based.
Series [19] concerns Staphylococcus aureus. Description: Antimicrobial activity against Staphylococcus aureus ATCC 29213 assessed as inhibition of microbial growth at 5 uM incubated for 10 hrs by spectrophotometric analysis relative to control. Also on record: scale not given: the % may be the effect or the level left. Type of series: functional.
Series [20] has as its system Aggregatibacter actinomycetemcomitans. Description: Bactericidal activity against Actinobacillus actinomycetemcomitans ATCC 43717 incubated for 18 hrs. Type of series: functional.
Series [21] relates to MC3T3-E1. Description: Cytotoxicity against mouse MC3T3-E1 cells assessed as reduction in cell viability at > 10 uM incubated for 2 days by CCK-8 assay. Type of series: toxicity, cell-based. As to conditions: mc3t3-e1, 48 h, time 2 day.
In series [22] the test system is Staphylococcus aureus. The experiment in a line: Antimicrobial activity against Staphylococcus aureus ATCC 29213 assessed as reduction in bacterial survival at 5 uM incubated for 2 hrs by spectrophotometric analysis relative to control. Type of series: functional.
For series [23], the system named is Staphylococcus aureus. The experiment in a line: Antibacterial activity against Staphylococcus aureus infected in male Sprague-Dawley rat wound model assessed as wound healing with newly formed epidermal tissues at 2 uM administered every 2 days and measured after 10 days. Type of series: functional, organism-based. As to conditions: time 10.0 day.
In series [24] the test system is Staphylococcus aureus. Description: Bactericidal activity against Methicillin resistant Staphylococcus aureus ATCC 43300 incubated for 18 hrs. Type of series: functional.
Series [25] has as its system Staphylococcus aureus. The experiment in a line: Antibiofilm activity against Staphylococcus aureus ATCC 29213 assessed as damaged bacterial cells by measuring red fluorescence at 5 uM incubated for 12 hrs by SYTO9/PI staining based confocal laser scanning microscopic analysis. Type of series: functional, organism-based.
The test system of series [26] is Staphylococcus aureus. Description: Antibiofilm activity against Staphylococcus aureus ATCC 29213 assessed as disappearance of colony formation at 2 uM incubated for 48 hrs by crystal violet staining based microplate reader analysis. Type of series: functional, organism-based.
Series [27] relates to Escherichia coli. The experiment in a line: Antibacterial activity against Escherichia coli ATCC 25922 incubated for 18 hrs. Type of series: functional.
The test system of series [28] is Staphylococcus aureus. Description: Antibacterial activity against Methicillin resistant Staphylococcus aureus ATCC 43300 incubated for 18 hrs. Type of series: functional.
Series [29] has as its system Aggregatibacter actinomycetemcomitans. The experiment in a line: Antibacterial activity against Actinobacillus actinomycetemcomitans ATCC 43717 incubated for 18 hrs. Type of series: functional.
Series [30] deals with Staphylococcus aureus. Description: Antibiofilm activity against Staphylococcus aureus ATCC 29213 assessed as inhibition of biofilm formation at 2 uM incubated for 48 hrs by crystal violet staining based microplate reader analysis. Type of series: functional, organism-based.
The subject of series [31] is Staphylococcus aureus. The experiment in a line: Antibacterial activity against Methicillin resistant Staphylococcus aureus infected in male Sprague-Dawley rat wound model assessed as wound closure at 2 uM administered every 2 days and measured on day 7 (reference value: 66.84%). Type of series: functional. As to conditions: time 7 day.
The test system of series [32] is Staphylococcus aureus. The experiment in a line: Antibiofilm activity against Methicillin resistant Staphylococcus aureus ATCC 43300 assessed as inhibition of biofilm formation at 5 uM incubated for 48 hrs by crystal violet staining based microplate reader analysis. Type of series: functional, organism-based.
Series [33] relates to Staphylococcus aureus. The experiment in a line: Antimicrobial activity against Staphylococcus aureus ATCC 29213 assessed as reduction in bacterial survival at 5 uM incubated for 8 hrs by spectrophotometric analysis relative to control. Type of series: functional.
In series [34] the test system is Aggregatibacter actinomycetemcomitans. Description: Antibiofilm activity against Actinobacillus actinomycetemcomitans ATCC 43717 assessed as inhibition of biofilm formation at 5 uM incubated for 48 hrs by crystal violet staining based microplate reader analysis. Type of series: functional, organism-based.
The test system of series [35] is Streptococcus mutans. The experiment in a line: Antibacterial activity against Streptococcus mutans ATCC 25175 incubated for 18 hrs. Type of series: functional.
Series [36] has as its system Staphylococcus aureus. Description: Antibacterial activity against Methicillin resistant Staphylococcus aureus infected in male Sprague-Dawley rat wound model assessed as wound closure at 2 uM administered every 2 days and measured on day 10 (reference value: 66.84%). As to conditions: time 10 day. Type of series: functional.
In series [37] the test system is Staphylococcus aureus. Description: Antimicrobial activity against Staphylococcus aureus ATCC 29213 assessed as appearance of intracellular content in whole area at 20 uM incubated for 2 hrs by SEM analysis. Type of series: functional, organism-based.
Series [38] has as its system Staphylococcus aureus. The experiment in a line: Antimicrobial activity against Staphylococcus aureus ATCC 29213 assessed as reduction in bacterial survival at 5 uM incubated for 4 hrs by spectrophotometric analysis relative to control. Type of series: functional.
The test system of series [39] is Staphylococcus aureus. The experiment in a line: Antibiofilm activity against Methicillin resistant Staphylococcus aureus ATCC 43300 assessed as reduction in colony count at 2 to 5 uM incubated for 24 hrs by CFU assay. Type of series: functional, organism-based. As to conditions: dose 2-5 µM.
Series [40] concerns Streptococcus mutans. Description: Bactericidal activity against Streptococcus mutans ATCC 25175 incubated for 18 hrs. Type of series: functional.
For series [41], the system named is Staphylococcus aureus. The experiment in a line: Antibacterial activity against Methicillin resistant Staphylococcus aureus ATCC 43300 assessed as reduction in bacterial growth at 2 to 5 uM. Type of series: functional, organism-based. As to conditions: dose 2-5 µM.
Series [42] relates to Staphylococcus aureus. The experiment in a line: Antimicrobial activity against Staphylococcus aureus ATCC 29213 assessed as intracellular content leakage at 20 uM incubated for 2 hrs by SEM analysis. Type of series: functional, organism-based.

H-FGLDIIKKIAESF-NH2: the outcome in [1] and in series [2] was Active.

Take H-FGLKIIKKIAKSF-NH2: in [3], the outcome was inactive. Besides, the result in series [4], in series [5], in series [6], in series [9] and in series [10] was Active. In addition, the Activity in series [7] was determined as 100%; in series [8], 6.45%.

For H-GLFKIIKKIAKSF-NH2, in series [11], the hemolysis at 1 h, 32 µM was < 10%. Further, the Activity in series [12] is 68.16%; in series [15], 100%; in series [16], 85.49%; in series [19], 100%; in series [21], “Toxic”; in series [22], 11.54%. Further, the Activity in series [8] is 6.7%; in series [31] it was “<=92.65%”; in series [33], 8.24%; in [36], 100%; in series [38] it was 8.89%. Further, the MBC in series [13], in series [20], in series [24] and in series [40] was ≤ 10 µM throughout. The result in series [14], in series [17], in [18], in [23], in series [25] and in [6] was Active. The outcome in [26], in series [30], in [9], in series [32], in series [34] and in series [37] was Active. Also, the result in series [39] was Active. In addition, the MIC in series [27], in [28], in series [29] and in series [35] was ≤ 10 µM throughout.

With `CCn1cc(C(=O)O)c(=O)c2cc(F)c(N3CCNCC3)cc21`, in series [41], the outcome was inactive. Besides, in series [32], the Activity entry is “Active; Weaker Inhibition Of Biofilm Observed”.

On to H-GLFDIIKKIAESF-NH2, for which the hemolysis at 1 h, 32 µM in [11] was < 10%. In [16], the Activity worked out at 91.16%. Also, the MIC in series [27], in [28], in [29] and in series [35] was ≥ 80 µM throughout. Besides, the result in series [42] was Active.

For `CO[C@@]1(NC(=O)Cc2cccs2)C(=O)N2C(C(=O)O)=C(COC(N)=O)CS[C@@H]21` [CEFOXITIN], the Activity is 66.13% in series [12], “Active; Weaker Inhibition Of Biofilm Observed” in series [32] and 77.35% in series [36]. The outcome in [17] and in series [23] was Active. Further, the result in [41] was inactive.

As for H-GLFDIIKKIAEFS-NH2, in [2], the outcome was Active.

Consider H-FLFDIIKKIAESG-NH2, for which the result in series [1] was Active.

Regarding H-GLFKIIKKIAKSG-NH2, the outcome in [2] was Active.

Values taken from ChEMBL document CHEMBL6182917, “Molecular-Level Strategy from Bottom-Up to Acquire High-Efficiency Antimicrobial Peptides” (J Med Chem, 2025).
